From the supplement of paper PMC10307832

Columns and labels:
Assay in all cases: relative viability (nuclei count vs DMSO), 5 days (fraction); higher = more cells survive
[1] = compound: CC(C)=CC[C@@H](O)C1=CC(=O)c2c(O)ccc(O)c2C1=O [Shikonin] + Cc1cc(Nc2cc(N3CCN(C)CC3)nc(Sc3ccc(NC(=O)C4CC4)cc3)n2)n[nH]1 [Tozasertib] (partner 0.1 µM)
In short: (§1)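 One day after seeding in 1536-well plates, lung cancer cell lines were dosed by pin tool. Dosing was either single-drug or a fixed anchor-drug dose plus five library-drug doses (not always all listed) in √10 steps. After 5 days, nuclei were stained in one fix-and-stain step and counted on 4× images, and relative viability is the nuclei count of treated wells over that of vehicle wells, given as the median of duplicate plates.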

[2] = compound: CC(C)N(CCCNC(=O)Nc1ccc(C(C)(C)C)cc1)C[C@H]1O[C@@H](n2ccc3c(N)ncnc32)[C@H](O)[C@@H]1O + CS(=O)(=O)CCNCc1ccc(-c2ccc3ncnc(Nc4ccc(OCc5cccc(F)c5)c(Cl)c4)c3c2)o1 [Lapatinib] (partner 2 µM)
In short: as §1

[3] = compound: CC(C)N(CCCNC(=O)Nc1ccc(C(C)(C)C)cc1)C[C@H]1O[C@@H](n2ccc3c(N)ncnc32)[C@H](O)[C@@H]1O + CC(C)C[C@H](NC(=O)[C@H](Cc1ccccc1)NC(=O)c1cnccn1)B(O)O [Bortezomib] (partner 0.002 µM)
In short: as §1

[4] = compound: CC(C)=CC[C@@H](O)C1=CC(=O)c2c(O)ccc(O)c2C1=O [Shikonin] + N=C(N)NC(=N)NCCc1ccccc1 [Phenformin] (partner 250 µM)
In short: as §1

Cell Line	relative viability ([1]; first compound 0.01 µM)	relative viability ([1]; first compound 0.1 µM)	relative viability ([1]; first compound 0.3162 µM)	relative viability ([1]; first compound 1 µM)	relative viability ([2]; first compound 0.08 µM)	relative viability ([2]; first compound 0.253 µM)	relative viability ([2]; first compound 0.8 µM)	relative viability ([2]; first compound 2.53 µM)	relative viability ([2]; first compound 8 µM)	relative viability ([3]; first compound 0.08 µM)	relative viability ([3]; first compound 0.253 µM)	relative viability ([3]; first compound 0.8 µM)	relative viability ([3]; first compound 2.53 µM)	relative viability ([3]; first compound 8 µM)	relative viability ([4]; first compound 0.01 µM)	relative viability ([4]; first compound 0.1 µM)	relative viability ([4]; first compound 0.3162 µM)	relative viability ([4]; first compound 1 µM)
HCC-366	0.118	0.103	0.166	0.114	0.987	1.07	1.02	0.981	0.976	0.996	0.999	0.948	1.05	1.04	0.62	0.644	0.663	0.597
HCC-827	0.452	0.456	0.432	0.453	0.207	0.217	–	0.174	0.158	1.08	0.969	0.668	1.02	0.993	0.438	0.404	0.42	0.373
HOP-62	0.369	0.407	0.369	0.38	1.02	0.797	0.858	0.958	0.764	0.599	0.854	0.132	0.605	0.361	0.762	0.694	0.744	0.723
LC-2-ad	0.486	0.392	0.485	0.435	0.937	0.906	0.925	0.966	0.835	0.968	1.2	0.65	0.978	0.878	0.553	0.643	0.592	0.667
LCLC-97TM1	0.254	0.21	0.222	0.17	0.906	–	1.41	0.517	1.11	0.681	0.686	0.493	0.422	0.631	0.495	0.449	0.437	0.472
LOU-NH91	0.685	0.711	0.613	0.683	0.643	0.731	–	0.83	0.773	0.442	0.449	–	0.421	0.608	0.685	0.755	0.754	0.715
LU99A	0.248	0.281	0.298	0.234	0.923	0.679	1.16	1.16	1.04	1.12	0.831	1.38	1.16	1.2	0.859	1.15	0.758	0.791
LXF-289	0.212	0.183	0.209	0.196	0.867	0.956	0.863	0.943	0.821	1	0.993	0.719	1.03	0.98	0.533	0.526	0.535	0.535
NCI-H23	0.363	0.335	0.658	0.413	1	–	1.22	1.21	0.955	0.837	–	0.523	0.94	1.17	0.864	0.812	0.849	0.717
NCI-H322M	0.486	0.467	0.478	0.381	0.536	0.591	0.607	0.564	0.607	1.11	1.13	1.12	1.39	1.38	0.871	0.856	0.754	0.836
NCI-H460	0.456	0.496	0.483	0.414	0.835	0.983	0.829	0.971	0.855	0.967	1.3	1.2	1.15	1.13	0.515	0.64	0.51	0.474
NCI-H520	0.49	0.436	0.475	0.433	0.712	0.58	0.655	0.845	0.811	0.581	0.179	0.155	0.647	0.524	0.504	0.809	0.567	0.6
NCI-H596	0.79	0.83	0.914	0.732	1.17	0.946	0.971	1.08	1.06	0.997	0.843	0.746	1.05	1.2	0.798	0.858	0.893	0.897
NCI-H647	0.407	0.323	0.247	0.193	0.961	–	0.856	0.983	0.933	0.761	–	0.2	0.821	0.809	0.572	0.677	0.477	0.538
NCI-H650	0.69	0.793	0.788	0.66	0.921	0.889	0.775	0.791	0.871	0.785	0.598	0.773	0.682	0.796	0.462	0.462	0.447	0.426
NCI-H661	0.371	0.359	0.355	0.37	0.441	0.467	0.519	0.404	0.523	0.63	0.753	0.625	0.747	0.719	0.251	0.292	0.275	0.291
NCI-H727	1.64	0.672	0.634	0.697	0.922	0.821	0.804	0.973	0.686	0.829	0.696	0.583	0.935	0.734	0.523	0.604	0.579	0.543
NCI-H838	0.289	0.264	0.257	0.29	0.869	0.521	0.953	0.938	0.916	0.755	0.372	0.626	0.672	0.788	0.547	0.722	0.608	0.578

Cell Line	relative viability ([1]; first compound 0.01 µM)	relative viability ([1]; first compound 0.1 µM)	relative viability ([1]; first compound 0.3162 µM)	relative viability ([1]; first compound 1 µM)	relative viability ([2]; first compound 0.08 µM)	relative viability ([2]; first compound 0.253 µM)	relative viability ([2]; first compound 0.8 µM)	relative viability ([2]; first compound 2.53 µM)	relative viability ([2]; first compound 8 µM)	relative viability ([3]; first compound 0.08 µM)	relative viability ([3]; first compound 0.253 µM)	relative viability ([3]; first compound 0.8 µM)	relative viability ([3]; first compound 2.53 µM)	relative viability ([3]; first compound 8 µM)	relative viability ([4]; first compound 0.01 µM)	relative viability ([4]; first compound 0.1 µM)	relative viability ([4]; first compound 0.3162 µM)	relative viability ([4]; first compound 1 µM)
NCI-H1355	0.559	0.553	0.554	0.583	0.94	0.975	–	1	0.857	1.15	1.2	–	1.22	1.08	0.438	0.483	0.46	0.476
NCI-H1437	0.417	0.43	0.405	0.455	0.703	0.77	0.773	0.722	0.715	0.526	0.417	0.309	0.423	0.536	0.299	0.338	0.337	0.321
NCI-H1650	0.419	0.367	0.365	0.3	0.753	0.584	–	0.762	0.884	0.185	0.205	–	0.205	0.201	0.443	0.488	0.335	0.254
NCI-H1651	0.8	0.783	0.744	0.748	0.724	0.727	0.586	0.779	0.93	0.958	0.957	0.967	0.943	0.944	0.381	0.377	0.281	0.349
NCI-H1666	0.622	0.636	0.665	0.522	0.618	0.613	0.427	0.568	0.486	0.802	0.775	0.613	0.83	0.697	0.558	0.605	0.552	0.548
NCI-H1734	0.288	0.284	0.302	0.161	0.987	1.06	0.976	1.13	0.995	0.701	0.921	0.355	0.973	0.847	0.414	0.432	0.34	0.425
NCI-H1755	0.578	0.521	0.506	0.532	1.02	1.06	0.841	0.979	0.944	0.934	0.914	0.467	0.929	0.878	0.696	0.668	0.659	0.55
NCI-H1915	0.444	0.498	0.454	0.482	1.02	0.981	0.783	0.925	0.87	0.911	0.972	0.622	0.894	0.935	0.383	0.396	0.368	0.395
NCI-H1975	0.865	0.83	0.764	0.701	0.752	0.805	0.473	0.752	0.656	0.34	0.352	0.149	0.36	0.341	0.417	0.431	0.413	0.408
NCI-H1993	0.627	0.547	0.571	0.551	0.857	0.734	0.769	0.819	0.775	0.96	0.912	0.915	1.13	1.16	0.504	0.579	0.555	0.499
NCI-H2009	0.747	0.774	0.815	0.56	1.01	0.818	0.716	0.888	0.792	1.05	0.817	0.883	1.08	0.955	0.475	0.568	0.433	0.181
NCI-H2023	0.477	0.453	0.383	0.412	0.735	0.425	0.752	0.787	0.592	0.89	0.451	0.872	1.09	0.821	0.352	0.386	0.452	0.341
NCI-H2085	0.758	0.829	0.868	0.801	0.782	0.681	0.747	0.858	0.798	1.02	0.925	0.749	1.09	0.907	0.738	0.847	0.785	0.637
NCI-H2087	0.307	0.254	0.198	0.202	1.03	1.16	0.825	1.01	0.996	0.861	0.841	0.25	0.99	0.857	0.458	0.484	0.447	0.463
NCI-H2126	0.91	0.967	0.869	0.846	0.721	0.735	0.681	0.718	0.742	1.03	1.12	1.14	1.08	1.05	0.518	0.571	0.565	0.513
NCI-H2228	0.177	0.273	0.234	0.212	0.971	–	1.06	0.949	0.984	0.788	–	0.377	0.825	1.19	0.31	0.287	0.283	0.289
NCI-H2347	0.546	0.504	0.594	0.558	0.965	0.999	0.654	0.968	0.934	1.14	0.871	0.534	0.924	1	0.488	0.384	0.31	0.313
NCI-H2405	0.768	0.802	0.779	0.687	1.14	–	0.811	1.13	1.09	0.986	0.989	0.918	0.994	0.819	0.391	0.398	0.427	0.396
